Measurements from ChEMBL document CHEMBL4002566, “S-substituted 3,5-dinitrophenyl 1,3,4-oxadiazole-2-thiols and tetrazole-5-thiols as highly efficient antitubercular agents” (Eur J Med Chem, 2017).
In brackets after ≈: the same amount, converted by molar mass.

Legend:
Klebsiella pneumoniae [1] = assay: Antibacterial activity against Klebsiella pneumoniae HK11750/08 after 24 hrs by broth microdilution method; type: functional; conditions: HK11750/08, 24 h
Pichia kudriavzevii [2] = assay: Antifungal activity against Candida krusei E28 after 24 hrs by broth microdilution method; type: functional; conditions: E28, 24 h
Lichtheimia corymbifera [3] = assay: Antifungal activity against Absidia corymbifera 272 after 48 hrs by broth microdilution method; type: functional; conditions: Lichtheimia corymbifera, 272, 48 h
[4] = system: Trichophyton mentagrophytes; assay: Antifungal activity against Trichophyton mentagrophytes 445 after 72 hrs by broth microdilution method; type: functional; conditions: Trichophyton mentagrophytes, 445, 72 h
Lichtheimia corymbifera [5] = assay: Antifungal activity against Absidia corymbifera 272 after 24 hrs by broth microdilution method; type: functional; conditions: Lichtheimia corymbifera, 272, 24 h
A-431 = assay: Cytotoxicity against human A431 cells assessed as cell viability after 48 hrs by MTS assay; type: cell-based; conditions: A-431, 48 h
[6] = Cytotoxicity against human HuH7 cells assessed as cell viability at 30 uM after 48 hrs by MTS assay relative to control; type: cell-based, Huh-7; conditions: read-out: Activity
[7] = system: Trichophyton mentagrophytes; assay: Antifungal activity against Trichophyton mentagrophytes 445 after 120 hrs by broth microdilution method; type: functional; conditions: Trichophyton mentagrophytes, 445, 120 h
Enterococcus sp. [8] = assay: Antibacterial activity against Enterococcus sp. HK14365/08 after 48 hrs by broth microdilution method; type: functional; conditions: HK14365/08, 48 h
Staphylococcus aureus [9] = assay: Antibacterial activity against methicillin-resistant Staphylococcus aureus HK5996/08 after 24 hrs by broth microdilution method; type: functional; conditions: HK5996/08, 24 h
Escherichia coli [10] = assay: Antibacterial activity against Escherichia coli ATCC 8739 after 24 hrs by broth microdilution method; type: functional; conditions: ATCC 8739, 24 h
Escherichia coli [11] = assay: Antibacterial activity against Escherichia coli ATCC 8739 after 48 hrs by broth microdilution method; type: functional; conditions: ATCC 8739, 48 h
Mycobacterium kansasii [12] = assay: Antimycobacterial activity against Mycobacterium kansasii 6509/96 clinical isolate after 21 days by micromethod; type: functional; conditions: 6509/96, 504 h
Enterococcus sp. [13] = assay: Antibacterial activity against Enterococcus sp. HK14365/08 after 24 hrs by broth microdilution method; type: functional; conditions: HK14365/08, 24 h
Trichosporon asahii [14] = assay: Antifungal activity against Trichosporon asahii 1188 after 24 hrs by broth microdilution method; type: functional; conditions: Trichosporon asahii, 1188, 24 h
Candida albicans [15] = assay: Antifungal activity against Candida albicans ATCC 44859 after 24 hrs by broth microdilution method; type: functional; conditions: ATCC 44859, 24 h
Mycobacterium kansasii [16] = assay: Antimycobacterial activity against Mycobacterium kansasii CNCTC My 235/80 after 7 days by micromethod; type: functional; conditions: CNCTC My 235/80, 168 h
Klebsiella pneumoniae [17] = assay: Antibacterial activity against extended spectrum beta-lactamase producing Klebsiella pneumoniae HK14368/08 after 48 hrs by broth microdilution method; type: functional; conditions: HK14368/08, 48 h
Candida tropicalis [18] = assay: Antifungal activity against Candida tropicalis 156 after 24 hrs by broth microdilution method; type: functional; conditions: Candida tropicalis, 156, 24 h
Mycobacterium kansasii [19] = assay: Antimycobacterial activity against Mycobacterium kansasii 6509/96 clinical isolate after 7 days by micromethod; type: functional; conditions: 6509/96, 168 h
HepG2 = assay: Cytotoxicity against human HepG2 cells assessed as cell viability after 48 hrs by MTS assay; type: cell-based; conditions: HepG2, 48 h
[20] = Cytotoxicity against MDCK cells assessed as cell viability at 30 uM after 48 hrs by MTS assay relative to control; type: cell-based, Canis lupus familiaris; conditions: dog, read-out: Activity
Nakaseomyces glabratus [21] = assay: Antifungal activity against Candida glabrata 20/I after 48 hrs by broth microdilution method; type: functional
Trichosporon asahii [22] = assay: Antifungal activity against Trichosporon asahii 1188 after 48 hrs by broth microdilution method; type: functional; conditions: Trichosporon asahii, 1188, 48 h
Klebsiella pneumoniae [23] = assay: Antibacterial activity against extended spectrum beta-lactamase producing Klebsiella pneumoniae HK14368/08 after 24 hrs by broth microdilution method; type: functional; conditions: HK14368/08, 24 h
Candida albicans [24] = assay: Antifungal activity against Candida albicans ATCC 44859 after 48 hrs by broth microdilution method; type: functional; conditions: ATCC 44859, 48 h
Mycobacterium kansasii [25] = assay: Antimycobacterial activity against Mycobacterium kansasii CNCTC My 235/80 after 21 days by micromethod; type: functional; conditions: CNCTC My 235/80, 504 h
Pseudomonas aeruginosa [26] = assay: Antibacterial activity against Pseudomonas aeruginosa ATCC 9027 after 24 hrs by broth microdilution method; type: functional; conditions: ATCC 9027, 24 h
Staphylococcus aureus [27] = assay: Antibacterial activity against methicillin-resistant Staphylococcus aureus HK5996/08 after 48 hrs by broth microdilution method; type: functional; conditions: HK5996/08, 48 h
MDCK = assay: Cytotoxicity against MDCK cells assessed as cell viability after 48 hrs by MTS assay; type: cell-based; conditions: Canis lupus familiaris
Aspergillus fumigatus [28] = assay: Antifungal activity against Aspergillus fumigatus 231 after 48 hrs by broth microdilution method; type: functional; conditions: Aspergillus fumigatus, 231, 48 h
Mycobacterium kansasii [29] = assay: Antimycobacterial activity against Mycobacterium kansasii CNCTC My 235/80 after 14 days by micromethod; type: functional; conditions: CNCTC My 235/80, 336 h
Nakaseomyces glabratus [30] = assay: Antifungal activity against Candida glabrata 20/I after 24 hrs by broth microdilution method; type: functional
Huh-7 = assay: Cytotoxicity against human HuH7 cells assessed as cell viability after 48 hrs by MTS assay; type: cell-based; conditions: Huh-7, 48 h
Candida tropicalis [31] = assay: Antifungal activity against Candida tropicalis 156 after 48 hrs by broth microdilution method; type: functional; conditions: Candida tropicalis, 156, 48 h
Mycobacterium avium [32] = assay: Antimycobacterial activity against Mycobacterium avium CNCTC My 330/88 after 14 days by micromethod; type: functional; conditions: CNCTC My 330/88, 336 h
Pseudomonas aeruginosa [33] = assay: Antibacterial activity against Pseudomonas aeruginosa ATCC 9027 after 48 hrs by broth microdilution method; type: functional; conditions: ATCC 9027, 48 h
[34] = system: Mycobacterium tuberculosis; assay: Antimycobacterial activity against Mycobacterium tuberculosis CNCTC My 331/88 after 21 days by micromethod; type: functional; conditions: CNCTC My 331/88, 504 h
Staphylococcus aureus [35] = assay: Antibacterial activity against Staphylococcus aureus ATCC 6538 after 24 hrs by broth microdilution method; type: functional; conditions: ATCC 6538, 24 h
Mycobacterium avium [36] = assay: Antimycobacterial activity against Mycobacterium avium CNCTC My 330/88 after 21 days by micromethod; type: functional; conditions: CNCTC My 330/88, 504 h
Klebsiella pneumoniae [37] = assay: Antibacterial activity against Klebsiella pneumoniae HK11750/08 after 48 hrs by broth microdilution method; type: functional; conditions: HK11750/08, 48 h
[38] = system: Staphylococcus epidermidis; assay: Antibacterial activity against Staphylococcus epidermidis HK6996/08 after 48 hrs by broth microdilution method; type: functional; conditions: HK6996/08, 48 h
[39] = system: Staphylococcus epidermidis; assay: Antibacterial activity against Staphylococcus epidermidis HK6996/08 after 24 hrs by broth microdilution method; type: functional; conditions: HK6996/08, 24 h
Mycobacterium kansasii [40] = assay: Antimycobacterial activity against Mycobacterium kansasii 6509/96 clinical isolate after 14 days by micromethod; type: functional; conditions: 6509/96, 336 h
Pichia kudriavzevii [41] = assay: Antifungal activity against Candida krusei E28 after 48 hrs by broth microdilution method; type: functional; conditions: E28, 48 h
[42] = Cytotoxicity against human HepG2 cells assessed as cell viability at 30 uM after 48 hrs by MTS assay relative to control; type: cell-based; conditions: read-out: Activity
[43] = system: Mycobacterium tuberculosis; assay: Antimycobacterial activity against Mycobacterium tuberculosis CNCTC My 331/88 after 14 days by micromethod; type: functional; conditions: CNCTC My 331/88, 336 h
Aspergillus fumigatus [44] = assay: Antifungal activity against Aspergillus fumigatus 231 after 24 hrs by broth microdilution method; type: functional; conditions: Aspergillus fumigatus, 231, 24 h
Staphylococcus aureus [45] = assay: Antibacterial activity against Staphylococcus aureus ATCC 6538 after 48 hrs by broth microdilution method; type: functional; conditions: ATCC 6538, 48 h
[46] = Selectivity index, ratio of IC50 for human HepG2 cells to MIC for Mycobacterium tuberculosis; type: toxicity; conditions: read-out: Selectivity Index
[47] = Cytotoxicity against human A431 cells assessed as cell viability at 30 uM after 48 hrs by MTS assay relative to control; type: cell-based, A-431; conditions: read-out: Activity

With `O=[N+]([O-])c1cc(-n2nnnc2SCc2ccc(Cl)c(Cl)c2)cc([N+](=O)[O-])c1` the MIC (Klebsiella pneumoniae [1]) was > 500 µM, the MIC (Pichia kudriavzevii [2]) was > 500 µM and the MIC (Lichtheimia corymbifera [3]) was > 500 µM. For the same molecule, the MIC [4] was > 500 µM, the MIC (Lichtheimia corymbifera [5]) was > 500 µM and the IC50 (A-431) was > 30 µM. The viability at 48 h, 30 µM [6] was 137%, the MIC [7] was > 500 µM and the MIC (Enterococcus sp. [8]) was > 500 µM. The MIC (Staphylococcus aureus [9]) was 125 µM (≈ 53.4 µg/mL), the MIC (Escherichia coli [10]) was > 500 µM and the MIC (Escherichia coli [11]) was > 500 µM. The MIC (Mycobacterium kansasii [12]) was 1 µM (≈ 0.427 µg/mL), the MIC (Enterococcus sp. [13]) was > 500 µM and the MIC (Trichosporon asahii [14]) was > 500 µM. The MIC (Candida albicans [15]) was > 500 µM, the MIC (Mycobacterium kansasii [16]) was 0.5 µM (≈ 0.214 µg/mL) and the MIC (Klebsiella pneumoniae [17]) was > 500 µM. For the same molecule, the MIC (Candida tropicalis [18]) was > 500 µM, the MIC (Mycobacterium kansasii [19]) was 0.25 µM (≈ 0.107 µg/mL) and the IC50 (HepG2) was > 30 µM. The viability at 48 h, 30 µM [20] was 84%, the MIC (Nakaseomyces glabratus [21]) was > 500 µM and the MIC (Trichosporon asahii [22]) was > 500 µM. The MIC (Klebsiella pneumoniae [23]) was > 500 µM, the MIC (Candida albicans [24]) was > 500 µM and the MIC (Mycobacterium kansasii [25]) was 1 µM (≈ 0.427 µg/mL). The MIC (Pseudomonas aeruginosa [26]) was > 500 µM, the MIC (Staphylococcus aureus [27]) was 125 µM (≈ 53.4 µg/mL) and the IC50 (MDCK) was > 30 µM. The MIC (Aspergillus fumigatus [28]) was > 500 µM, the MIC (Mycobacterium kansasii [29]) was 1 µM (≈ 0.427 µg/mL) and the MIC (Nakaseomyces glabratus [30]) was > 500 µM. For the same molecule, the IC50 (Huh-7) was > 30 µM, the MIC (Candida tropicalis [31]) was > 500 µM and the MIC (Mycobacterium avium [32]) was 8 µM (≈ 3.42 µg/mL). For the same molecule, the MIC (Pseudomonas aeruginosa [33]) was > 500 µM, the MIC [34] was 0.25 µM (≈ 0.107 µg/mL) and the MIC (Staphylococcus aureus [35]) was 62 µM (≈ 26.5 µg/mL). The MIC (Mycobacterium avium [36]) was 32 µM (≈ 13.7 µg/mL), the MIC (Klebsiella pneumoniae [37]) was > 500 µM and the MIC [38] was 250 µM (≈ 107 µg/mL). The MIC [39] was 250 µM (≈ 107 µg/mL), the MIC (Mycobacterium kansasii [40]) was 0.5 µM (≈ 0.214 µg/mL) and the MIC (Pichia kudriavzevii [41]) was > 500 µM. The viability at 48 h, 30 µM [42] was 145%, the MIC [43] was 0.25 µM (≈ 0.107 µg/mL) and the MIC (Aspergillus fumigatus [44]) was > 500 µM. The MIC (Staphylococcus aureus [45]) was 62 µM (≈ 26.5 µg/mL), the selectivity ratio [46] was > 120 and the viability at 48 h, 30 µM [47] was 90%.
